# Results from US20080241215A1, “LOCAL VASCULAR DELIVERY OF PROBUCOL ALONE OR IN COMBINATION WITH SIROLIMUS TO TREAT RESTENOSIS, VULNERABLE PLAQUE, AAA AND STROKE” (priority 2007, published 2008).
# Tests used:
# [1] = Drug concentration in liquid formulations (liquid chromatography); type: physicochemical; conditions: ethanol, Vitamin E TPGS and water formulation, ethanol less than two percent
# Procedure: The concentrations of each constituent were determined by liquid chromatography and are presented as weight by volume figures.
# In another exemplary embodiment, the liquid formulation of sirolimus comprises water and ethanol as co-solvents and Vitamin E TPGS as the excipient. The liquid formulation was created utilizing the following process. Two hundred milligrams of sirolimus and two grams of ethanol were added to a pre-weighed twenty milliliter scintillation vial. The vial was vortexed and sonicated until the sirolimus was completely dissolved. Approximately six hundred milligrams of Vitamin E TPGS was then added to the solution of ethanol and sirolimus. The vial was vortexed again until a clear yellowish solution was obtained. Nitrogen gas was then used to reduce the amount of ethanol in the vial to approximately two hundred twenty-nine milligrams. In a separate vial, three hundred milligrams of Vitamin E TPGS was dissolved in eleven milliliters of purified water while undergoing vortexing. The Vitamin E TPGS and water solution was then added to the first vial containing the sirolimus, Vitamin E TPGS and ethanol. The first vial was then vortexed vigorously and continuously for three minutes.
# In another exemplary embodiment, a liquid formulation of CCI-779, a sirolimus analog, is prepared utilizing ethanol, Vitamin E TPGS and water. […]
# [2] = test system: human coronary artery smooth muscle cells; test: Proliferation of cultured human coronary artery smooth muscle cells; type: cell-based
# Procedure: The multiple curves represent various concentrations of topotecan ranging from zero to three hundred nanomolar concentrations. […]
# Curve 8702 illustrates the percent inhibition for various concentrations. In FIG. 88, the six curves 8802, 8804, 8806, 8808, 8810 and 8812 represent various concentrations of PX867 with various concentrations of sirolimus. […] More specifically, curve 8812 illustrates the percent inhibition for a 240 nM PX-867 concentration. […] This may be compared to curve 8804 which represents a 15 nM PX-867 concentration.
# [3] = Porcine drug elution PK studies (in vivo release from stent coating); conditions: for drug remaining in the drug coating: after eight (8) days of implantation, single-layer sirolimus/cilostazol EVA/BMA coating with 100 μg BMA overcoat (FIG. 83)
# [4] = test system: human coronary artery smooth muscle cell; test: MTS cytotoxicity assay; type: cell-based; conditions: concentrations up to 30,000.00 nanomolar
# Description: Typically, a control is utilized to determine baseline toxicity.
# [5] = In vitro release kinetics from stent coating; type: physicochemical; conditions: single-layer sirolimus/cilostazol EVA/BMA coating with 100 μg BMA overcoat (FIG. 83)
# Description: In the study, the rapamycin and Panzem® are incorporated into different layers of a polymeric coating. In this study, a Bx Velocity stent is coated with a four hundred microgram inner layer and a three hundred microgram outer layer. The inner layer comprises forty-five percent Panzem® and fifty-five percent EVA/BMA (50/50). […] There is no topcoat of just polymer in this study. Curve 7100 illustrates the release kinetics of Panzem® from the coating.
# Another critical parameter for the performance of the thrombus resistance of a device coated with cilostazol is the duration of the drug release from the coating. This is of particular significance in the two weeks after device implantation. In the porcine drug elution PK studies of the dual drug eluting coating, both cilostazol and sirolius were slowly released from the coating, resulting in a sustained drug release profile. The purpose of the porcine PK study is to assess the local pharmacokinetics of a drug eluting stent at a given implantation time. Normally three stents are implanted in three different coronary arteries in a pig for a given time point and then retrieved for total drug recovery analysis. […] The stents are extracted and the total amount of drug remaining on the stents is determined by analysis utilizing HPLC (high performance liquid chromatography) for total drug amount. […]
# [6] = test system: cell viability; test: Cell viability assay; type: cell-based
# Description: The multiple curves represent various concentrations of topotecan ranging from zero to three hundred nanomolar concentrations.
# The multiple curves represent various concentrations of etoposide ranging from zero to eight hundred nanomolar concentrations.
# [7] = test system: tumor cell lines; conditions: tumor cell lines (Woo et al. 2002); cited from earlier work
smiles,measurement,setting,value
CO[C@H]1C[C@@H]2CC[C@@H](C)[C@@](O)(O2)C(=O)C(=O)N2CCCC[C@H]2C(=O)O[C@H]([C@H](C)C[C@@H]2CC[C@@H](OC(=O)C(C)(CO)CO)[C@H](OC)C2)CC(=O)[C@H](C)/C=C(\C)[C@@H](O)[C@@H](OC)C(=O)[C@H](C)C[C@H](C)/C=C/C=C/C=C/1C [CCI-779],concentration in the final solution (HPLC assay),[1],15000 µg/mL
"Nc1nc(Cl)nc2c1ncn2[C@H]1C[C@H](O)[C@@H](CO)O1 [Cladribine, 2-chlorodeoxyadenosine]",inhibition of human coronary artery smooth muscle cell proliferation,"[2]; non-synchronized cells, two percent fetal bovine serum",completely inhibits
same,effect on anti-proliferative rapamycin dose response curves,"[2]; non-synchronized cells, two percent fetal bovine serum, cladribine zero to nine hundred nanomolar",potentiate the anti-proliferative activity of rapamycin
same,in vivo elution relative to rapamycin,"[3]; EVA/BMA basecoat with rapamycin and cladribine, 200 μg BMA topcoat, Yorkshire pigs",elutes more rapidly than rapamycin
COC[C@H]1OC(=O)/C(=C\N2CCCC2)C2=C(O)C(=O)C3=C([C@H](OC(C)=O)C[C@]4(C)C(=O)CC[C@@H]34)[C@]21C [PX-867],inhibition of coronary artery smooth muscle cell proliferation,[2]; PX867 alone at a concentration of about 10^−6,one hundred
same,combination effect with sirolimus on percent inhibition,"[2]; cultured cells, PX-867 15 nM to 240 nM with various sirolimus concentrations",strong synergistic effect
"COc1cc2c(cc1O)CC[C@@H]1[C@@H]2CC[C@]2(C)[C@@H](O)CC[C@@H]12 [Panzem®, 2-methoxyestradiol]",cell survival (MTS assay),[4],do not reduce human coronary artery smooth muscle cell survival
same,anti-proliferative activity,"[2]; synchronized cells, two percent fetal bovine serum",extremely effective inhibitor
same,effect on percent inhibition by rapamycin,"[2]; synchronized cells, two percent fetal bovine serum, Panzem zero to 100 micromolar",increases the percent of inhibition of rapamycin alone
"O=C1CCc2cc(OCCCCc3nnnn3C3CCCCC3)ccc2N1 [cilostazol, 6[4-(1-cyclohexyl-1H-tetrazol-5-yl)-butoxy]-3,4-dihydro-2-(1H)-quinolinone]",in vitro drug release,[5],~35%
same,drug remaining in the drug coating,[3],~80%
COc1cc([C@@H]2c3cc4c(cc3[C@@H](O[C@@H]3O[C@@H]5CO[C@@H](C)O[C@H]5[C@H](O)[C@H]3O)[C@H]3COC(=O)[C@H]23)OCO4)cc(OC)c1O [etoposide],cytotoxicity in cell viability assay,[6]; concentrations up to ten micromolar,non-cytotoxic
same,effect on anti-proliferative rapamycin dose response curves,"[2]; non-synchronized cells, two percent fetal bovine serum, etoposide zero to eight hundred nanomolar",potentiate the anti-proliferative activity of rapamycin
COc1c(C)c2c(c(O)c1C/C=C(\C)CCC(=O)O)C(=O)OC2 [mycophenolic acid],effect on anti-proliferative rapamycin dose response curve,"[2]; non-synchronized cells, two percent fetal bovine serum, mycophenolic acid zero to one thousand nanomolar",potentiates the anti-proliferative activity of rapamycin
same,in vivo elution relative to rapamycin,"[3]; EVA/BMA basecoat with 180 μg rapamycin and 180 μg mycophenolic acid, BMA topcoat 0-200 μg",elutes more completely over a shorter duration than the rapamycin
CO[C@H]1C[C@@H]2CC[C@@H](C)[C@@](O)(O2)C(=O)C(=O)N2CCCC[C@H]2C(=O)O[C@H]([C@H](C)C[C@@H]2CC[C@@H](O)[C@H](OC)C2)CC(=O)[C@H](C)/C=C(\C)[C@@H](O)[C@@H](OC)C(=O)[C@H](C)C[C@H](C)/C=C/C=C/C=C/1C [rapamycin],drug remaining in the drug coating,[3],~80%
CC[C@@]1(O)C(=O)OCc2c1cc1n(c2=O)Cc2cc3c(CN(C)C)c(O)ccc3nc2-1 [topotecan],cytotoxicity in cell viability assay,[6]; concentrations up to one micromolar,non-cytotoxic
same,effect on anti-proliferative rapamycin dose response curves,"[2]; synchronized cells, two percent fetal bovine serum, topotecan zero to three hundred nanomolar",potentiate the anti-proliferative activity of rapamycin
CC(/C=C/C(=O)NO)=C\[C@@H](C)C(=O)c1ccc(N(C)C)cc1 [trichostatin A],anti-proliferative IC50's,[7],low nM range
same,inhibition of human coronary artery smooth muscle cell proliferation,[2]; in vitro cell culture studies,completely inhibit
same,IC50,"[2]; in vitro cell culture studies, read-out: anti-proliferative IC50",~6 nM
